# pKd: −log10 of the molar value. “And” between values parts separate entries of the source, which are not always exact repeats. Identical values can stand only once.
# Key:
# [1] = Oxygen sensitivity of ADLumin-1; type: physicochemical
# Procedure: Oxygen and ROS sensitivity of ADLumin-1: A 100.0 μL DMSO solution of ADLumin-1 (200.0 μM) was added to a well in a 96-well plate. One group was bubbled with oxygen for 5 seconds at different time points, and the control group was sealed without bubbling. Once the bubbling was over, the plate was subjected to chemiluminescence intensity recording with the IVIS system with the open filter setting (500 nm-840 nm). For ROS tests, A PBS solution (240 μL) was incubated in an Eppendorf tube. To each of above tubes, different ROS (H2O2 30 μL, […] 30 μL, TBHP 30 μL and KO2 30 μL) was added, respectively. Then, a solution of ADLumin-1 in DMSO (30 μL, 250.0 μM) was added. Finally, 100.0 μL of the resulting solution was transferred into a well of 96-well plate, and triplicated samples were prepared. Chemiluminescence images were obtained with an IVIS system under the open filter (500 nm-840 nm).
# [2] = target: alpha-synuclein in human serum (Homo sapiens, UniProt P37840); experiment: Chemiluminescence of synuclein incubated with human serum
# prion = type: binding
# Aβ40 aggregates = Aβ40 aggregates (Homo sapiens, UniProt P05067); experiment: Binding affinity of ADLumin-1 with Aβs (fluorescence titration); conditions: ADLumin-1 250 nM, Aβ40 aggregates 0 to 8 μM, fluorescence at 515 nm
# Chain of Aβ40 aggregates (P05067 672-711 limits assumed): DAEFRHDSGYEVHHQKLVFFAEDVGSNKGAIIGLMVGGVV
# PA-K2 = experiment: Chemiluminescence detection of model beta-sheet aggregates (PA-K2); type: binding
# [3] = target: Aβ plaques and cerebral amyloid angiopathy (CAA) (Homo sapiens, UniProt P05067)
# Chain of Aβ plaques and cerebral amyloid angiopathy (CAA) (P05067 672-713 limits assumed): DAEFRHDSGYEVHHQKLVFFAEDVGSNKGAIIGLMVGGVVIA
# [4] = system: beta-sheet misfoldons in patient serum; experiment: Chemiluminescence detection of beta-sheet misfoldons in disease serum; parameters: species or system human
# Procedure: Chemiluminescence detection beta-sheet misfoldons in disease serum by ADLumin-1: serum of AD patient contains abundant beta-sheet misfoldons that can be detected by ADLumin-1. ADLumin-1 (2.5 μM) was added to 100 μl non-diluted serum of AD patients, and serum from health control (HC) was used as the control. […] This is remarkable, since this difference is phenomenally large and is very useful for blood quality evaluation.
# Misfolded beta-sheets are associated with various diseases, including brain disorders (e.g., neurodegenerative disorders) and periphery diseases, particularly chronic diseases. The patient sera of chronic diseases also contains abundant beta-sheet misfoldons. In this regard, patient sera of multiple sclerosis, diabetes, rheumatoid arthritis and pulmonary fibrosis patients was used in this example.
# insulin = target: T1, insulin (Homo sapiens, UniProt P01308); experiment: Chemiluminescence with misfoldon aggregates in PBS (insulin); type: binding
# T1 construct: immunoglobulin G (IgG), proinsulin, insulin, and apolipoprotein A-I (APO)
# T1 sequence (P01308 25-54 limits assumed, species assumed): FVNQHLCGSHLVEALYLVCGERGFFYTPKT
# T1 sequence (P01308 90-110 limits assumed, species assumed): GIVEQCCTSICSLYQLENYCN
# Aβ plaques = Aβ plaques (Homo sapiens, UniProt P05067); experiment: In vitro histological study (brain slice staining); conditions: 5×FAD mouse brain slice incubated with ADLumin-1
# Chain of Aβ plaques (P05067 672-713 limits assumed): as the sequence (P05067 672-713 limits assumed) above
# Procedure: In vitro histological study: a fresh brain tissue from a 24-month old APP/PS1 mouse was fixed in 4% formaldehyde for 24 hours and transferred into 30% sucrose at 4° C. until the tissue sunk. Then the tissue was embedded in OCT with gradual cooling over dry ice. […] Then the slice was covered with FluoroShield mounting medium (Abcam) and sealed with nail polish.
# Immunoglobulin G (IgG) = experiment: Aβ aggregates incubated with IgG
# [5] = target: Aβ40 aggregates, monomers and oligomers in human serum (Homo sapiens, UniProt P05067); experiment: Chemiluminescence of Aβ40 species incubated with non-diluted human serum
# Chain of Aβ40 aggregates, monomers and oligomers in human serum (P05067 672-711 limits assumed): as the sequence (P05067 672-711 limits assumed) above
# Aβs = Aβs (Homo sapiens, UniProt P05067); experiment: In vivo chemiluminescence imaging with ADLumin-1; parameters: species or system 5×FAD mice
# Chain of Aβs (P05067 672-713 limits assumed): as the sequence (P05067 672-713 limits assumed) above
# Procedure: The IVIS Spectrum animal imaging system (PerkinElmer) was used for in vivo imaging. Images were acquired with open filter or specific emission filters. […] Chemiluminescent signals from the eyes were recorded at 0 and 45 min after i.v. injection of the probe. Sequence images were captured at 15 min after probe injection with the following parameters: sequence filter from 500 nm to 840 nm with an interval of 20 nm; Exposure time is 30 s, FOV=D. […] To evaluate the imaging results, an ROI was drawn around the brain or the eye region. Student t-test was used to calculate P values.
# [6] = two-photon imaging, 5×FAD mouse, i.v. 4 mg/kg
compound,measurement,setting,value
"Cc1nc2c[nH]c(/C=C/C=C/c3ccc(N(C)C)cc3)cn-2c1=O [ADLumin-1, 6-((1E,3E)-4-(4-(dimethylamino)phenyl)buta-1,3-dien-1-yl)-2-methylimidazo[1,2-a]pyrazin-3(7H)-one]",response time to O2,[1],within seconds
same,luminescence increase after stirring,[1]; ADLumin-1 DMSO solution,3.4 fold
same,chemiluminescence intensity increase after O2 bubbling,"[1]; DMSO solution, after first 5 seconds bubbling",27 fold
same,chemiluminescence difference vs control group,[2],4.30 fold
same,largest chemiluminescence difference with aggregates,prion,2.22 fold
same,signal decay T½,prion,11.36 min
same,pKd,Aβ40 aggregates,5.68
same,intensity ratio of PA-K2/PA-K,PA-K2,about 47.5 fold
same,low limit of detection (LOD) lower than that of ThT,PA-K2,100 fold
same,chemiluminescence signal increase vs ADLumin-1 only in PBS,"PA-K2; ADLumin-1 2.5 μM, PA-K2 0.5 mg/ml, PBS",101 fold
same,peptide concentration range of concentration dependent intensity,PA-K2; PA-K2 and PA-E2,0.001 to 1.0 mg/mL
same,peptide concentration at which PA-K and PA-K2 are differentiated,PA-K2; chemiluminescence,0.001 mg/mL
same,ADLumin-1 concentration range of linear response,PA-K2; with 0.5 mg/ml PA-K2,0.001 to 0.1 mg/mL
same,SNR of CAAs,[3]; [6],~26.0
same,SNR of plaques,[3]; [6],about 17.0
same,time to peak intensity in CAA,[3]; two-photon time-course imaging,≤ 1 min
same,time to peak intensity in plaques,[3]; two-photon time-course imaging,5 min
same,chemiluminescence signal AD serum vs HC serum,"[4]; ADLumin-1 2.5 μM, 100 μl non-diluted serum",> 50 fold and 52.2 fold
same,chemiluminescence signal disease serum vs HC control,[4]; diabetes serum,44.7 fold
same,chemiluminescence signal disease serum vs HC control,[4]; multiple sclerosis serum,34.9 fold
same,chemiluminescence signal disease serum vs HC control,[4]; pulmonary fibrosis serum,16.6 fold
same,chemiluminescence signal disease serum vs HC control,[4]; rheumatoid arthritis serum,29.3 fold
same,largest chemiluminescence difference with aggregates,"insulin; ADLumin-1 2.5 μM, insulin aggregates 2.5 μM, PBS",10.8 fold
same,signal decay T½,insulin; with insulin aggregates,> 60 min
same,signal to noise ratio (SNR) of plaques,Aβ plaques,2.93
same,chemiluminescence intensity IgG/Aβ group vs IgG group,Immunoglobulin G (IgG); incubation 30 minutes,1.81 fold
same,chemiluminescence intensity IgG/Aβ group vs IgG group,Immunoglobulin G (IgG); incubation 60 minutes,1.71 fold
same,chemiluminescence intensity IgG/Aβ group vs IgG group,Immunoglobulin G (IgG); incubation 120 minutes,2.55 fold
same,chemiluminescence ratio of the Aβ group and the control group,[5]; Aβ40 aggregate 2.5 μM,about 3.43 fold
same,chemiluminescence intensity Aβ group vs control group,[5]; Aβ monomers,1.96 fold
same,chemiluminescence intensity Aβ group vs control group,[5]; Aβ oligomers,1.71 fold
same,chemiluminescence signal 5×FAD vs age-matched wild-type mice,"Aβs; 5-month-old mice, summary statement",1.80 fold
same,brain chemiluminescence signal difference 5×FAD vs WT,Aβs; 640 nm filter,1.7 fold
same,brain chemiluminescence signal difference 5×FAD vs WT,"Aβs; 15 minutes after i.v. injection, open filter",1.7 fold
same,brain chemiluminescence signal difference 5×FAD vs WT,"Aβs; 30 minutes after i.v. injection, open filter",1.8 fold
same,chemiluminescence signals from eyes 5×FAD vs WT,"Aβs; mouse, in vivo",1.6 fold
same,chemiluminescence signals from noses 5×FAD vs WT,"Aβs; mouse, in vivo",1.7 fold

# — patent publication US12551576B2, “Chemiluminescent probes” (The General Hospital Corporation, priority 2020, dated 2026)
